Laboratory results reported in article PMC7954794, “Protein context shapes the specificity of SH3 domain-mediated interactions in vivo” (Nature Communications, 2021).

How the values were obtained:
[1] = system: 575 putative partners (preys) of 22 WT SH3-containing proteins; assay: DHFR-PCA on solid medium, WT and SH3-deleted baits (Fig. 1B); assay type: cell-based, Saccharomyces cerevisiae; set-up: key to Score: 0: SH3-independent; 1: SH3-dependent PPIs; 2: SH3-inhibited PPIs
Summary of the method: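 Interactions scored by DHFR protein-fragment complementation on solid medium using robotic pinning; preys (DHFR F[3] fusions) arrayed in duplicate with control borders. Baits carried C-terminal DHFR F[1,2]-FLAG tags, tested as wild type and as SH3-deleted versions carrying a flexible Gly/Ser stuffer.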

ABP1 = assay: DHFR-PCA on solid medium, bait ABP1 (Fig. 1B); assay type: cell-based, Saccharomyces cerevisiae; details: bait ABP1, label = prey; 2-4 replicates
Text: (§1) Supplement 41467_2021_21873_MOESM8_ESM.xlsx, sheet "Fig1B" | column: medsize; medrep; Ratio; Score

BBC1 = assay: DHFR-PCA on solid medium, bait BBC1 (Fig. 1B); assay type: cell-based, Saccharomyces cerevisiae; details: bait BBC1, label = prey; 2-4 replicates
Text: as §1

BEM1-1 = assay: DHFR-PCA on solid medium, bait BEM1-1 (Fig. 1B); assay type: cell-based, Saccharomyces cerevisiae; details: bait BEM1-1, label = prey; 2-8 replicates
Text: as §1

BEM1-2 = assay: DHFR-PCA on solid medium, bait BEM1-2 (Fig. 1B); assay type: cell-based, Saccharomyces cerevisiae; details: bait BEM1-2, label = prey; 2-8 replicates
Text: as §1

BOI1 = assay: DHFR-PCA on solid medium, bait BOI1 (Fig. 1B); assay type: cell-based, Saccharomyces cerevisiae; details: bait BOI1, label = prey
Text: as §1

BOI2 = assay: DHFR-PCA on solid medium, bait BOI2 (Fig. 1B); assay type: cell-based, Saccharomyces cerevisiae; details: bait BOI2, label = prey; 3-8 replicates
Text: as §1

BUD14 = assay: DHFR-PCA on solid medium, bait BUD14 (Fig. 1B); assay type: cell-based, Saccharomyces cerevisiae; details: bait BUD14, label = prey; 4 replicates
Text: as §1

BZZ1-1 = assay: DHFR-PCA on solid medium, bait BZZ1-1 (Fig. 1B); assay type: cell-based, Saccharomyces cerevisiae; details: bait BZZ1-1, label = prey; 4 replicates
Text: Supplement 41467_2021_21873_MOESM8_ESM.xlsx, sheet "Fig1B" | column: medsize; medrep; Score

Abp1 PPIs = assay: DHFR-PCA of Abp1 SH3-swapped baits (Fig. 2B-D, S2C, S2F); assay type: cell-based, Saccharomyces cerevisiae; details: number of interactions of Abp1 carrying the named SH3; sheet FigS2A-B
Text: Having determined that multiple PPIs require SH3s, we asked whether the latter establish PPI specificity independently from their host proteins by swapping domains (Fig. 2A). Using the second round of genome editing, we individually replaced Abp1 SH3 with the 27 yeast SH3s and 3 human Abp1 orthologs’ SH3s (CTTN, HCLS1, and DBNL, Fig. 2B). The reintroduction of its own SH3 (Abp1SH3 in Abp1) reconstitutes almost perfectly Abp1’s interaction profile (Kendall’s τ = 0.93, Fig. 2B). […] No homologous SH3 domain fully re-establishes the normal Abp1 PPI profile (Fig. 2B and Supplementary Fig. 2C). However, we observe a significant correlation (cophenetic correlation = 0.20, p value = 0.005, Fig. 2C) between the similarity of PPI profiles (Fig. 2B) and the sequence similarity of the SH3s. […] Nonetheless, a subset of SH3-dependent PPIs is only observed with the endogenous domain. For instance, Hua2 and App1, both well-characterized partners of Abp1[14],[18],[19], are only detected when Abp1 contains its own SH3 (WT or swapped via editing). A given SH3 may therefore not be fully replaceable with other paralogous or orthologous domains. This pattern is confirmed by cellular growth phenotypic analyses (Supplementary Fig. 2D, E). PPIs, SH3 sequence similarity, and growth profiles under stress conditions are correlated (Supplementary Fig. 2D, E). This relationship is particularly clear when analyzing growth on media supplemented with hygromycin.
The stuffing of YSC84 SH3 rendered the strain sterile and was therefore not used for this study as the assays require crosses. For genes containing two SH3s (BZZ1 and BEM1), a combination of this first stuffer with a second one ([…]) coding for a highly similar linker ([…]) was used, which allowed targeting each SH3 position independently. The two N-terminal domains of SLA1, which are separated by six nucleotides, were stuffed by a single stuffer. Cells containing pCAS were selected via the G418 resistance cassette from the plasmid on YPD plates (YPD + NAT 100 μg/ml (DHFR F[1,2] selection) + G418 200 µg/mL (Bioshop Canada)). Colonies were randomly selected and grown in YPD media without G418 to allow plasmid loss. The correct insertion of the stuffer was validated by PCR and Sanger sequencing. The SH3-swapped, -shuffled, and -mutated strains were constructed following a second CRISPR–Cas9 editing step with the same procedures. The stuffer sequences were targeted by specific gRNAs (one gRNA per stuffer) and replaced by PCR amplified specific SH3 (with 40 bp homology arms) or libraries of mutated SH3 domains for Deep Mutational Scanning (DMS) with 78 bp flanking homology regions. Validation of the SH3 domain insertions was done as we previously described except for DMS libraries (see below).
The overall DHFR-PCA pipeline is based on Tarassov et al.[43] and the procedures have also been published as a visualized protocol. The screens were performed with robotically manipulated pin tools (BM5-SC1, S&P Robotics Inc.). First, the preys were cherry-picked from 96-well plates to omnitrays in a 384 format on YPD + HPH solid media. Plates were then combined into the 1536 format on YPD + HPH. The array was constituted of 575 preys previously shown to interact physically with at least one SH3-containing protein as reported in BioGRID V3.4.16 along with 40 negative controls. The prey array comprised a border of control strains of two rows and two columns corresponding to the PPI between LSM8-DHFR F[1,2] and CDC39-DHFR F[3]. This double border was used to remove border effects. Preys are present in duplicate at a randomized position in the 1536 array (except for YAL041W which is present four times per array). Baits were crossed with two prey plates, resulting in four independent bait–prey tests for each PPI. Baits were grown in liquid YPD + NAT and then transferred on solid YPD + NAT omnitrays. They were then replicated on YPD + NAT omnitrays in 1536 array format. […]

Abp1 (1xFLAG) = assay: Western blot expression level of Abp1 SH3-swapped baits (Fig. S2A-B); assay type: cell-based, Saccharomyces cerevisiae; set-up: Flag (2 bands): unit not given here; details: sheet FigS2A-B; for Ratio Swap/WT Flag: Flag signal relative to Abp1 WT (Abp1-1 to Abp1-4 = 1); for Flag (2 bands): Western blot Flag signal (2 bands), Abp1 WT, SH3-deleted or SH3-swapped
Protocol: Precultures of yeast cells expressing baits fused with the DHFR F[1,2]-FLAG were grown overnight at 30 °C with agitation in synthetic complete medium. The next day, cells were expanded in synthetic complete medium to reach their exponential phase (OD600 of around 1.0), pelleted, and frozen at −80 °C. The equivalent of fifty OD600 of cells was resuspended in ice-cold yeast lysis buffer (10 mM Tris-HCl pH 7.4, 150 mM NaCl, 0.5 mM EDTA (Millipore Sigma), 1% Triton X-100 (Millipore Sigma), and one cOmplete Mini Protease Inhibitor Cocktail (Millipore Sigma) per 10 mL) with […] glass beads (Millipore Sigma) and disrupted at 4 °C by 10 cycles of 2 min vortexing and 2 min cooldown. The equivalent of […] of lysed cells was used for the immunoprecipitation of the bait proteins using FLAG-M2 agarose beads (Millipore Sigma). The beads were incubated with the cell lysates for 120 min at 4 °C with a slow rotation, followed by three washes with the yeast lysis buffer.
Protein extracts and affinity-purified baits from yeast and human lysed cells were migrated on 10% polyacrylamide gels. The separated proteins were then transferred to nitrocellulose membranes. Validation of correct protein loading was done with ponceau staining of the membranes. Before the primary antibody incubations, membranes were blocked in 5% milk. Protein signals were detected on an Amersham Imager 600RGB (GE Healthcare) following the incubation of the membranes with the appropriate HRP-conjugated secondary antibodies and the Clarity Western ECL Substrate (Bio-Rad). The antibodies used in this study are M2-HRP (A8592, Sigma, 1/50,000), rabbit anti-FLAG (F7425, Sigma, 1/1000), PAK (SC-881, Santa Cruz, 1/200), p130cas/BCAR1 (SC-860, Santa Cruz, 1/200), actin (Cell Signaling Technology, 1/2000), anti-mouse HRP (Cell Signaling Technology, 1/10,000) and anti-rabbit HRP (Cell Signaling Technology, 1/10,000). The quantification of the WB signals was performed with the Amersham Imager 600 analysis software (GE Healthcare).

[2] = system: NCK2 interactome in HEK293T cells; assay: AP-SWATH (DIA) quantitative MS of NCK2 PPIs (Fig. 5A-C); assay type: cell-based, human; details: SAINT FDR < 1%; duplicates
Protocol: Human embryonic kidney 293T cells (HEK293T, ATCC:CRL-3216) were grown in Dulbecco’s Modified Eagle’s medium (DMEM) high glucose complemented with 10% fetal calf serum under 5% CO2 at 37 °C. Transient expression of cDNA in cells was performed by polyethylenimine (PEI, Millipore Sigma) transfections. Enrichment of phospho-dependent PPIs was done by treating HEK293T cells with the tyrosine phosphatase inhibitor pervanadate, freshly made by mixing 4 mM orthovanadate (Millipore Sigma) with 30% H2O2 (Millipore Sigma) in water in a 200:1 volume ratio. […]
NCK2 baits purified on beads from HEK293T cells (as previously described in the methods) were washed two additional times in 20 mM Tris-HCl pH 7.4 and eluted in 50 mM phosphoric acid. […] These were analyzed alongside four negative controls corresponding to transiently expressed 3×FLAG-GFP purified from HEK293T cells (as described for NCK2 constructs). […] The equivalent of one-third of each sample was used for the SWATH-libraries generation and another third for SWATH quantification. […] We validated that the same quantity of baits was used for each NCK2 chimeras by quantifying NCK2 peptides in each sample (see Supplementary Data 3). […]

In the case of YDL229W, the “medrep (log2 median colony size normalized to plate background, PCA score)” value ([1]; bait SLA1-3, DHFR-PCA, label = prey, Replicates 4 (2 for YCR009C, YDR388W, YIL033C)) is reported as 5.405, the Score ([1]; bait SLA1-3, label = prey) is reported as 0 and the “medrep (log2 median colony size normalized to plate background, PCA score)” value (ABP1) is reported as 5.461. The “medrep (log2 median colony size normalized to plate background, PCA score)” value (BBC1) was 5.103, the “medrep (log2 median colony size normalized to plate background, PCA score)” value (BEM1-1) was 3.594 and the “medrep (log2 median colony size normalized to plate background, PCA score)” value (BEM1-2) was 3.594. For the same substance, the “medrep (log2 median colony size normalized to plate background, PCA score)” value (BOI1; 3-8 replicates) was 2.407, the “Ratio (SH3-deleted/WT medrep)” value (BOI1; only significant differences showed, PPIs completely lost have a ratio of 0.1 and the gained PPIs 2.5) was 2.5 and the “medrep (log2 median colony size normalized to plate background, PCA score)” value (BOI2) was 3.977. For the same substance, the “medrep (log2 median colony size normalized to plate background, PCA score)” value (BUD14) was 3.548 and the “medrep (log2 median colony size normalized to plate background, PCA score)” value (BZZ1-1) was 4.468.
For Cdc25, the “Interactions in Abp1” value (Abp1 PPIs) was 27, the “Ratio Swap/WT Flag” value (Abp1 (1xFLAG)) was 0.6887 and the “Flag (2 bands)” value (Abp1 (1xFLAG)) was 152280.
In the case of “WT NCK2: wild-type NCK2 adaptor (mouse cDNA) with three SH3s and one SH2”, the “High confidence NCK2 PPIs” value [2] is reported as 56 PPIs.
With Rvs167 the “Interactions in Abp1” value (Abp1 PPIs) was 91, the “Ratio Swap/WT Flag” value (Abp1 (1xFLAG)) was 0.1645 and the “Flag (2 bands)” value (Abp1 (1xFLAG)) was 38158.
